41 compounds from patent US8088806B2 (Achillion Pharmaceuticals, Inc., priority 2005, dated 2012) can be followed below.

Some results are limits rather than exact numbers.

The subject of this assay is HCV replicon. Briefly: Replicon based assay of HCV replication inhibition (NPT ELISA). Format: cell-based, Hepatitis C virus. The following applies: Hepatitis C virus, replicon based assay of HCV replication inhibition; Table II; read-out: Activity. The method in brief: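 Huh-7 cells carrying a bicistronic HCV replicon (neo, EMCV-IRES-driven NS3–NS5B) treated overnight after seeding with usually 6 concentrations, 10 to 0.03 micromolar, for three days at 37° C without G418. Replication read as NPT level by captured ELISA; matched-DMSO wells and interferon alpha as controls.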
Consider `CCCCCOc1ccc(Nc2nc(CN3CCCCC3CO)cs2)cc1F` (centres unmarked) [compound 286, (1-((2-(3-fluoro-4-(pentyloxy)phenylamino)thia-zol-4-yl)methyl)piperidin-2-yl)methanol], for which the EC50 was in the range of 1 to 10 µM.

For `CCCCCOc1ccc(Nc2nc(CN3CCC(N(C)C)C3)cs2)cc1F` (centres unmarked) [compound 287, 4-((3-(dimethylamino)pyrrolidin-1-yl)methyl)-N-(3-fluoro-4-(pentyloxy)pheenyl)thiazol-2-amine], the EC50 is less than 1 µM.

On to `CCCCCOc1ccc(Nc2nc(CN3CCC(O)C3)cs2)cc1F` (centres unmarked) [compound 288, 1-((2-(3-fluoro-4-(pentyloxy)phenylamino)thia-zzol-4-yl)methyl)pyrrolidin-3-ol], for which the EC50 was less than 1 µM.

In the case of `CCCCCOc1ccc(Nc2nc(CN3CCC(C(=O)OCC)CC3)cs2)cc1F` [compound 289, ethyl 1-((2-(3-fluoro-4-(pentyloxy)phenylamino)thia-zol-4-yl)methyl)piperidine-4-carboxylate], the EC50 is 1 to 10 µM.

Take `CCCCCOc1ccc(Nc2nc(CN3C[C@H](O)CC3C(=O)OC)cs2)cc1F` (stereo partly drawn) [compound 290, (4R)-methyl 1-((2-(3-fluoro-4-(pentyloxy)phenylamino)thia-zol-4-yl)methyl)-4-hydroxypyrrolidine-2-carboxylate]: the EC50 is less than 1 µM.

Consider `CCCCCOc1ccc(Nc2nc(CN3CCC(O)CC3)cs2)cc1F` [compound 291, 1-((2-(3-fluoro-4-(pentyloxy)phenylamino)thia-zol-4-yl)methyl)piperidin-4-ol], for which the EC50 was 1 to 10 µM.

Take `CCCCCOc1ccc(Nc2nc(CN3CCC(CO)CC3)cs2)cc1F` [compound 292, (1-((2-(3-fluoro-4-(pentyloxy)phenylamino)thia-zol-4-yl)methyl)piperidin-4-yl)methanol]: the EC50 was in the range of 1 to 10 µM.

`CCCCCOc1ccc(Nc2nc(CN3CCCC(C(=O)O)C3)cs2)cc1F` (centres unmarked) [compound 293, 1-((2-(3-fluoro-4-(pentyloxy)phenylamino)thia-zol-4-yl)methyl)piperidine-3-carboxylic acid]: the EC50 was 1 to 10 µM.

Consider `CCCCCOc1ccc(Nc2nc(CN3CCC[C@@H]3C(=O)O)cs2)cc1F` [compound 294, (R)-1-((2-(3-fluoro-4-(pentyloxy)phenylamino)thia-zol-4-yl)methyl)pyrrolidine-2-carboxylic acid], for which the EC50 is 1 to 10 µM.

`CCCCCOc1ccc(Nc2nc(CN3CCC(C)CC3)cs2)cc1F` [compound 295, N-(3-fluoro-4-(pentyloxy)pheenyl)-4-((4-methylpiperidin-1-yl)methyl)thiazol-2-amine]: the EC50 was in the range of 1 to 10 µM.

As for `CCCCCOc1ccc(Nc2nc(CN3CCCC(C)C3)cs2)cc1F` (centres unmarked) [compound 296, N-(3-fluoro-4-(pentyloxy)phenyl)-4-((3-methylpiperidin-1-yl)methyl)thiazol-2-amine], the EC50 lay in the range of 1 to 10 µM.

As to `CCCCCOc1ccc(Nc2nc(CN3C(C)CCCC3C)cs2)cc1F` (centres unmarked) [compound 297, 4-((2,6-dimethylpiperidin-1-yl)methyl)-N-(3-fluoro-4-(pentyloxy)phenyl)thiazol-2-amine], the EC50 fell in the range of 1 to 10 µM.

Turning to `CCCCCOc1ccc(Nc2nc(-c3csc(-c4cccnc4)n3)cs2)cc1C(F)(F)F` [compound 298, N-(4-(pentyloxy)-3-(trifluoromethyl)phenyl)-4-(2-(pyridin-3-yl)thiazol-4-yl)thiazol-2-amine], the EC50 is less than 1 µM.

Turning to `COc1ccc(C2CCCCC2)cc1Nc1nc(-c2cccnc2)cs1` [compound 299, N-(5-cyclohexyl-2-methoxyphenyl)-4-(pyridin-3-yl)thiazol-2-amine], the EC50 lay within 1 to 10 µM.

Take `COc1ccc(Oc2ccccc2)cc1Nc1nc(-c2cccnc2)cs1` [compound 300, N-(2-methoxy-5-phenoxyphenyl)-4-(pyridin-3-yl)thiazol-2-amine]: the EC50 lay in the range of 1 to 10 µM.

With `CCCCCOc1ccc(Nc2nc(-c3ccc(C(=O)NC4CC4)nc3)cs2)cc1C(F)(F)F` [compound 301, N-cyclopropyl-5-(2-(4-(pentyloxy)-3-(trifluoromethyl)phenylamino)thiazolo-4-yl)picolinamide], the EC50 was less than 1 µM.

For the compound `CCCCCCCCOc1ccc(Nc2nc(-c3ccc(C(=O)O)cc3)cs2)cc1` [compound 303, 4-(2-(4-(octyloxy)phenylamino)thia-zol-4-yl)benzoic acid], the EC50 lay within 1 to 10 µM.

For `CCCCCOc1ccc(Nc2nc(CN3CCC(C(C)(C)N)C3)cs2)cc1C(F)(F)F` (centres unmarked) [compound 304, 4-((3-(2-aminopropan-2-yl)pyrrolidin-1-yl)methyl)-N-(4-(pentyloxy)-3-(trifluoromethyl)phenyl)thia-zol-2-amine], the EC50 lay in the range of 1 to 10 µM.

In the case of `CCCCCOc1ccc(Nc2nc(CN3CCC(C(C)(C)N)C3)cs2)cc1F` (centres unmarked) [compound 305, 4-((3-(2-aminopropan-2-yl)pyrrolidin-1-yl)methyl)-N-(3-fluoro-4-(pentyloxy)phenyl)thiazol-2-amine], the EC50 lay in the range of 1 to 10 µM.

`CCCCCCCCOc1ccc(Nc2nc(-c3csc(N)n3)cs2)cc1` [compound 306, 4-(2-aminothiazol-4-yl)-N-(4-(octyloxy)phenyl)thiazol-2-amine]: the EC50 is less than 1 µM.

As to `CCCCCCCCOc1ccc(Nc2nc(-c3cn4cccnc4n3)cs2)cc1` [compound 307, 4-(imidazo[1,2-a]pyrimidin-2-yl)-N-(4-(octyloxy)phenyl)thiazol-2-amine], the EC50 was less than 1 µM.

Regarding `CCCCCCCCOc1ccc(Nc2nc(CN3CCN(C(=O)OC(C)(C)C)CC3)cs2)cc1` [compound 308, tert-butyl 4-((2-(4-(octyloxy)phenylamino)thia-zol-4-yl)methyl)piperazine-1-carboxylate], the EC50 lay in the range of 1 to 10 µM.

In the case of `CCCCCCCCOc1ccc(Nc2nc(CN3CCC(N(C)C(=O)OC(C)(C)C)C3)cs2)cc1` (centres unmarked) [compound 309, tert-butyl methyl(1-((2-(4-(octyloxy)phenylamino)thia-zol-4-yl)methyl)pyrrolidin-3-yl)carbamate], the EC50 was 1 to 10 µM.

For the compound `CCCCCCCCOc1ccc(Nc2nc(-c3ccc(OC)cc3)cs2)cc1` [compound 310, 4-(4-methoxyphenyl)-N-(4-(octyloxy)phenyl)thiazol-2-amine], the EC50 was less than 1 µM.

With `CCCCCCCCOc1ccc(Nc2nc(-c3ccc(OCC(=O)O)cc3)c(C)s2)cc1` [compound 311], the EC50 was less than 1 µM.

As for `CCCCCCCCOc1ccc(Nc2nc(-c3ccc(F)c(F)c3)cs2)cc1` [compound 312, 4-(3,4-difluorophenyl)-N-(4-(octyloxy)phenyl)thiazol-2-amine], the EC50 is less than 1 µM.

As to `CCCCCCCCOc1ccc(Nc2nc(CN3CCN(Cc4ccccn4)CC3)cs2)cc1` [compound 313], the EC50 lay within 1 to 10 µM.

Regarding `CCCCCCCCOc1ccc(Nc2nc(CN3CCN(C4CCCCCC4)CC3)cs2)cc1` [compound 314, 4-((4-cycloheptylpiperazin-1-yl)methyl)-N-(4-(octyloxy)phenyl)thiazol-2-amine], the EC50 is less than 1 µM.

`CCCCCCCCOc1ccc(Nc2nc(CN3CCC(C(N)=O)CC3)cs2)cc1` [compound 315, 1-((2-(4-(octyloxy)phenylamino)thia-zol-4-yl)methyl)piperidine-4-carboxammide]: the EC50 lay within 1 to 10 µM.

In the case of `CCCCCCCCOc1ccc(Nc2nc(CN3CCOCC3)cs2)cc1` [compound 316, 4-(morpholinomethyl)-N-(4-(octyloxy)phenyl)thiazol-2-amine], the EC50 lay within 1 to 10 µM.

Take `CCCCCCCCOc1ccc(Nc2nc(CN3CCC(N(C)C)C3)cs2)cc1` (centres unmarked) [compound 317, 4-((3-(dimethylamino)pyrrolidin-1-yl)methyl)-N-(4-(octyloxy)phenyl)thiazol-2-amine]: the EC50 is less than 1 µM.

Regarding `CCCCCCCCOc1ccc(Nc2nc(CN3CCC(O)C3)cs2)cc1` (centres unmarked) [compound 318, 1-((2-(4-(octyloxy)phenylamino)thia-zol-4-yl)methyl)pyrrolidin-3-ol], the EC50 was less than 1 µM.

On to `CCCCCCCCOc1ccc(Nc2nc(CN3CCC(C(=O)OCC)CC3)cs2)cc1` [compound 319, ethyl 1-((2-(4-(octyloxy)phenylamino)thia-zol-4-yl)methyl)piperidine-4-carboxylate], for which the EC50 was 1 to 10 µM.

On to `CCCCCCCCOc1ccc(Nc2nc(CN3C[C@H](O)CC3C(=O)OC)cs2)cc1` (stereo partly drawn) [compound 320, (4R)-methyl 4-hydroxy-1-((2-(4-(octyloxy)pheenylamino)thia-zol-4-yl)methyl)pyrrolidine-2-carboxylate], for which the EC50 was less than 1 µM.

For the compound `CCCCCCCCOc1ccc(Nc2nc(CN3CCC(O)CC3)cs2)cc1` [compound 321, 1-((2-(4-(octyloxy)phenylamino)thia-zol-4-yl)methyl)piperidin-4-ol], the EC50 lay within 1 to 10 µM.

With `CCCCCCCCOc1ccc(Nc2nc(CN3CCC(CO)CC3)cs2)cc1` [compound 322, (1-((2-(4-(octyloxy)phenylamino)thia-zol-4-yl)methyl)piperidin-4-yl)methanol], the EC50 lay in the range of 1 to 10 µM.

Turning to `CCCCCCCCOc1ccc(Nc2nc(CN3CCCC(C(=O)O)C3)cs2)cc1` (centres unmarked) [compound 323, 1-((2-(4-(octyloxy)phenylamino)thia-zol-4-yl)methyl)piperidine-3-carboxylic acid], the EC50 lay in the range of 1 to 10 µM.

As for `CCCCCCCCOc1ccc(Nc2nc(CN3CCC(C)CC3)cs2)cc1` [compound 324, 4-((4-methylpiperidin-1-yl)methyl)-N-(4-(octyloxy)phenyl)thiazol-2-amine], the EC50 lay within 1 to 10 µM.

Consider `CCCCCCCCOc1ccc(Nc2nc(CN3CCCC(C)C3)cs2)cc1` (centres unmarked) [compound 325, 4-((3-methylpiperidin-1-yl)methyl)-N-(4-(octyloxy)phenyl)thiazol-2-amine], for which the EC50 lay in the range of 1 to 10 µM.

As to `CCCCCCCCOc1ccc(Nc2nc(CN3C(C)CCCC3C)cs2)cc1` (centres unmarked) [compound 326, 4-((2,6-dimethylpiperidin-1-yl)methyl)-N-(4-(octyloxy)phenyl)thiazol-2-amine], the EC50 was in the range of 1 to 10 µM.

Consider `CCCCCCCCOc1ccc(Nc2nc(-c3ccccc3)cs2)cc1` [compound 327, N-(4-(octyloxy)phenyl)-4-phenylthiazol-2-amine], for which the EC50 was less than 1 µM.
